Experimental data taken from PubChem BioAssay (NCI).
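In this assay, cells in 96-well plates receive the compound at five concentrations for 48 hours. Endpoints are linearly interpolated between the surrounding concentrations. At the GI50, growth is halved. TGI: total growth inhibition.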

Legend:
Experiment in all cases: inhibition of tumour cell growth, NCI panel, 48 h
[1] = test system: COLO 205 colon
[2] = test system: SR leukemia
[3] = test system: SNB-75 CNS
[4] = test system: OVCAR-5 ovarian
[5] = test system: UO-31 renal
[6] = test system: UACC-257 melanoma
[7] = test system: OVCAR-8 ovarian
[8] = test system: OVCAR-3 ovarian
[9] = test system: ACHN renal
[10] = test system: HCC-2998 colon

CN(C(=O)c1ccco1)C(=S)N1CCN(c2ccccc2)CC1
TGI [1]: > 100 µM | TGI [2]: > 100 µM | TGI [3]: > 100 µM | TGI [4]: > 100 µM | TGI [5]: > 100 µM | TGI [6]: > 100 µM | TGI [7]: > 100 µM | TGI [8]: > 100 µM | TGI [9]: > 100 µM

O=C(O)c1nc(-c2ccccc2)[nH]c1C(=O)O
TGI [1]: 31.7 µM | TGI [2]: 2.36 µM | TGI [3]: 33.6 µM | TGI [4]: 31.7 µM | TGI [5]: 24.8 µM | TGI [6]: 30.3 µM | TGI [7]: 29.7 µM | TGI [10]: 12.8 µM | TGI [8]: 26.4 µM | TGI [9]: 30.7 µM

C[C@@H]1CC[C@H]2C(C(O)CCCCC(O)C3=C(C(F)(F)F)O[C@@H]4O[C@@]5(C)CC[C@H]6[C@H](C)CC[C@@H]3[C@@]46OO5)=C(C(F)(F)F)O[C@@H]3O[C@@]4(C)CC[C@@H]1[C@]32OO4 (stereo partly drawn)
GI50 [1]: 8.04 µM | TGI [1]: 29.4 µM | GI50 [2]: 1.91 µM | TGI [2]: 6.04 µM | GI50 [3]: 42.4 µM | TGI [3]: > 100 µM | GI50 [5]: 10.2 µM | TGI [5]: > 100 µM | GI50 [6]: 14.9 µM | TGI [6]: > 100 µM | GI50 [7]: 11.3 µM | TGI [7]: > 100 µM | GI50 [8]: 7.26 µM | TGI [8]: > 100 µM | GI50 [9]: 13.9 µM | TGI [9]: > 100 µM

Cc1c(NC(=O)CSC(=S)N2CCN(Cc3ccccc3)CC2)c(=O)n(-c2ccccc2)n1C
TGI [1]: > 100 µM | TGI [2]: > 100 µM | TGI [4]: > 100 µM | TGI [5]: > 100 µM | TGI [6]: > 100 µM | TGI [7]: > 100 µM | TGI [10]: > 100 µM | TGI [8]: > 100 µM | TGI [9]: > 100 µM

CC(C)C(OC(=O)c1ccc(NCc2cc(O)ccc2O)cc1)C(C)C
TGI [1]: 5.56 µM | TGI [2]: 2.43 µM | TGI [3]: 3.7 µM | TGI [4]: 6.16 µM | TGI [5]: 2.42 µM | TGI [6]: 3.83 µM | TGI [7]: 3.77 µM | TGI [10]: 10.2 µM | TGI [8]: 4.37 µM | TGI [9]: 2.33 µM

COC(=O)C(Cc1ccccc1)NP(=O)(O)OCC1OC(n2cc(F)c(=O)[nH]c2=O)CC1O (stereo not drawn)
TGI [1]: > 100 µM | TGI [2]: > 56.5 µM | TGI [3]: > 100 µM | TGI [4]: > 100 µM | TGI [5]: > 100 µM | TGI [6]: > 100 µM | TGI [7]: > 100 µM | TGI [10]: > 100 µM | TGI [8]: > 100 µM | TGI [9]: > 100 µM

COc1ccc2nc3cc([N+](=O)[O-])ccc3c(Nc3ccc(S(=O)(=O)NC(C)=O)cc3)c2c1
TGI [1]: > 100 µM | TGI [2]: 75.8 µM | TGI [4]: > 100 µM | TGI [5]: > 100 µM | TGI [6]: > 100 µM | TGI [10]: > 100 µM | TGI [8]: > 100 µM | TGI [9]: > 100 µM

CCOC(=O)c1nc2ccc(C(F)(F)F)cc2nc1Oc1cc(OC)cc(OC)c1
TGI [1]: > 100 µM | TGI [3]: 75.6 µM | TGI [4]: > 100 µM | TGI [5]: > 100 µM | TGI [6]: > 100 µM | TGI [7]: > 100 µM | TGI [8]: > 100 µM | TGI [9]: > 100 µM

Nc1ncnc2c1nnn2C1CCC(CP(=O)(O)O)C1 (stereo not drawn)
TGI [1]: > 100 µM | TGI [2]: > 100 µM | TGI [3]: > 100 µM | TGI [4]: > 100 µM | TGI [5]: > 100 µM | TGI [6]: > 100 µM | TGI [7]: > 100 µM | TGI [10]: > 100 µM | TGI [8]: > 100 µM | TGI [9]: > 100 µM

N#Cc1ccccc1-c1nc2c3c(c(N)ccc3n1)C(=O)c1ccccc1-2
TGI [1]: > 100 µM | TGI [3]: > 100 µM | TGI [4]: > 100 µM | TGI [5]: > 100 µM | TGI [6]: > 100 µM | TGI [7]: > 100 µM | TGI [10]: > 100 µM | TGI [8]: > 100 µM | TGI [9]: > 100 µM

CSc1n[nH]c(N)c1C(=O)Nc1ccc(C)cc1
TGI [1]: > 100 µM | TGI [2]: > 100 µM | TGI [4]: > 100 µM | TGI [5]: > 100 µM | TGI [6]: > 100 µM | TGI [10]: > 100 µM | TGI [8]: > 100 µM | TGI [9]: > 100 µM

CN(C)c1nc2oc(-c3ccccc3)c(-c3ccccc3)c2c2nnnn12
TGI [1]: > 100 µM | TGI [2]: > 100 µM | TGI [3]: > 100 µM | TGI [4]: > 100 µM | TGI [5]: > 100 µM | TGI [6]: > 100 µM | TGI [7]: > 100 µM | TGI [10]: > 100 µM | TGI [9]: > 100 µM

O=c1c2cc(I)ccc2nc(-c2cccs2)n1-c1ccc(O)cc1
TGI [1]: 36.1 µM | TGI [2]: > 100 µM | TGI [4]: 30.2 µM | TGI [5]: 25.4 µM | TGI [6]: 22.1 µM | TGI [7]: 29.4 µM | TGI [10]: 30.6 µM | TGI [8]: 21.8 µM | TGI [9]: 22.5 µM

COc1ccc(-n2c(=O)n(C)c(=O)n2-c2ccc(OC)cc2)cc1
TGI [1]: > 100 µM | TGI [2]: > 100 µM | TGI [3]: > 100 µM | TGI [4]: > 100 µM | TGI [5]: > 100 µM | TGI [6]: > 100 µM | TGI [7]: > 100 µM | TGI [8]: > 100 µM | TGI [9]: > 100 µM

COc1ccc(C(=O)/C=C/c2c(Cl)c3c(c(OC)c2Cl)OCC(=O)N3)cc1
GI50 [2]: 1.15 µM | TGI [2]: 7.45 µM | GI50 [3]: 2.23 µM | TGI [3]: 9.71 µM | GI50 [4]: 3.86 µM | TGI [4]: > 100 µM | GI50 [6]: 2.98 µM | TGI [6]: > 100 µM | GI50 [7]: 2.85 µM | TGI [7]: 16.3 µM | GI50 [9]: 1.79 µM | TGI [9]: 3.64 µM

CCOC(=O)c1cc2c3c(c(C(C)=O)c(O)c2[nH]1)N(CC(C)CC)CC3 (stereo not drawn)
TGI [1]: > 100 µM | TGI [2]: > 100 µM | TGI [3]: > 100 µM | TGI [5]: > 100 µM | TGI [6]: > 100 µM | TGI [7]: > 100 µM | TGI [9]: > 100 µM

CC(=O)Oc1c2oc3ccc(Cl)cc3c(=O)c2c(O)c2ccsc12
TGI [1]: > 100 µM | TGI [3]: > 100 µM | TGI [4]: > 100 µM | TGI [5]: > 100 µM | TGI [6]: > 100 µM | TGI [7]: > 100 µM | TGI [10]: > 100 µM | TGI [8]: > 100 µM | TGI [9]: > 100 µM

c1ccc2c(c1)CCc1c-2n(CCN2CCOCC2)c2ccccc12
TGI [1]: > 100 µM | TGI [2]: 38.3 µM | TGI [4]: > 100 µM | TGI [5]: > 100 µM | TGI [6]: > 100 µM | TGI [7]: > 100 µM | TGI [10]: > 100 µM | TGI [8]: > 100 µM | TGI [9]: > 100 µM

C/C(Nc1ccc(F)cc1)=C1/CCOC1=O
TGI [1]: 47 µM | TGI [2]: > 100 µM | TGI [3]: > 100 µM | TGI [5]: > 100 µM | TGI [6]: > 100 µM | TGI [7]: > 100 µM | TGI [10]: > 100 µM | TGI [8]: > 100 µM | TGI [9]: > 100 µM

C(CCCCc1nnc(N2CCCCC2)o1)CCCc1nnc(N2CCCCC2)o1
TGI [1]: > 100 µM | TGI [3]: > 100 µM | TGI [4]: > 100 µM | TGI [5]: > 100 µM | TGI [6]: > 100 µM | TGI [7]: > 100 µM | TGI [10]: > 100 µM | TGI [8]: > 100 µM | TGI [9]: > 100 µM

O=C(O)c1ccn(-c2cccc(-n3ccc(C(=O)O)n3)n2)n1
TGI [1]: > 100 µM | TGI [2]: > 100 µM | TGI [3]: > 100 µM | TGI [4]: > 100 µM | TGI [5]: > 100 µM | TGI [6]: > 100 µM | TGI [7]: > 100 µM | TGI [8]: > 100 µM | TGI [9]: > 100 µM
